Measurements: patent US9833497B2, “Human originated EGF domain proteins and use of the same” (CHENGDU SOURCEBIO LIMITED-LIABILITY COMPANY, priority 2013, dated 2017)

Assays:
Format in all cases: cell-based
E. coli DH5α = experiment: Antibacterial activity: MIC and growth curve against E. coli DH5α in 96-well plate; conditions: minimal inhibitory concentration against E. coli DH5α; 96-well plate, 5×10^5 CFU/mL, 37° C., judged after 8 h
Method in brief: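 Log-phase bacteria (OD600 ~0.5) resuspended in LB at 5×10^5 CFU/mL, exposed to recombinant protein at 50, 25, 12.5 μg/mL final in triplicate, 37 °C shaking at 175 rpm. OD600 read every 30 min; MIC is lowest concentration showing no growth.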

E. coli BL21 = experiment: MIC against Gram-negative bacteria: E. coli BL21; conditions: 5×10^5 CFU/mL
Method in brief: (§1)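 Read-out is absence of bacterial growth, with MIC set at the lowest recombinant protein concentration achieving it. Bacteria, pre-grown in LB to McFarland 0.5 and resuspended, were exposed at 5×10^5 CFU/mL to two-fold diluted human EGF domain proteins in triplicate at 37° C, 175 rpm.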

Pseudomonas aeruginosa = experiment: MIC against Gram-negative bacteria: Pseudomonas aeruginosa; conditions: 5×10^5 CFU/mL
Method in brief: as §1

Klebsiella pneumonia = experiment: MIC against Gram-negative bacteria: Klebsiella pneumonia; conditions: 5×10^5 CFU/mL
Method in brief: as §1

Enterobacter cloacae = experiment: MIC against Gram-negative bacteria: Enterobacter cloacae; conditions: 5×10^5 CFU/mL
Method in brief: as §1

Aeromonas hydrophila = experiment: MIC against Gram-negative bacteria: Aeromonas hydrophila; conditions: 5×10^5 CFU/mL
Method in brief: as §1

Citrobacter diversus = experiment: MIC against Gram-negative bacteria: Citrobacter diversus; conditions: 5×10^5 CFU/mL
Method in brief: as §1

Moraxella catarrhalis = experiment: MIC against Gram-negative bacteria: Moraxella catarrhalis; conditions: 5×10^5 CFU/mL
Method in brief: as §1

Proteus mirabilis = experiment: MIC against Gram-negative bacteria: Proteus mirabilis; conditions: 5×10^5 CFU/mL
Method in brief: as §1

Proteus vulgaris = experiment: MIC against Gram-negative bacteria: Proteus vulgaris; conditions: 5×10^5 CFU/mL
Method in brief: as §1

Serratia marcescens = experiment: MIC against Gram-negative bacteria: Serratia marcescens; conditions: 5×10^5 CFU/mL
Method in brief: as §1

[1] = 10 h cultivation at 37° C., two-fold serial dilution
[2] = E. coli BL21, 10 h cultivation at 37° C.

## PRT1117 (EVDECASAPCLHGGSCLDGVGSFRCVCAPGYGGTRCQ; listed as Homo sapiens)
E. coli DH5α
  MIC: 50 µg/mL
E. coli BL21; [1]
  MIC E. coli BL21: 12.5 µg/mL
Pseudomonas aeruginosa; [1]
  MIC P. aeruginosa: 50 µg/mL
Klebsiella pneumonia; [1]
  MIC K. pneumonia: 12.5 µg/mL
Enterobacter cloacae; [1]
  MIC E. cloacae: 50 µg/mL
Aeromonas hydrophila; [1]
  MIC A. hydrophila: 12.5 µg/mL
Citrobacter diversus; [1]
  MIC C. diversus: 25 µg/mL
Moraxella catarrhalis; [1]
  MIC M. catarrhalis: 12.5 µg/mL
Proteus mirabilis; [1]
  MIC P. mirabilis: 25 µg/mL
Proteus vulgaris; [1]
  MIC P. vulgaris: 12.5 µg/mL
Serratia marcescens; [1]
  MIC S. marcescens: 25 µg/mL

## PRT829 (FGPSCTLHCDCGGGADCDPVSGQCHCVDGYMGPTCR; listed as Homo sapiens)
E. coli DH5α
  MIC: 50 µg/mL
E. coli BL21; [2]
  MIC (μg/mL) E. coli BL21: 25 µg/mL
Pseudomonas aeruginosa; P. aeruginosa, 10 h cultivation at 37° C.
  MIC (μg/mL) P. aeruginosa: 12.5 µg/mL
Klebsiella pneumonia; K. pneumonia, 10 h cultivation at 37° C.
  MIC (μg/mL) K. pneumonia: 25 µg/mL
Enterobacter cloacae; E. cloacae, 10 h cultivation at 37° C.
  MIC (μg/mL) E. cloacae: 50 µg/mL
Aeromonas hydrophila; A. hydrophila, 10 h cultivation at 37° C.
  MIC (μg/mL) A. hydrophila: 25 µg/mL
Citrobacter diversus; C. diversus, 10 h cultivation at 37° C.
  MIC (μg/mL) C. diversus: 12.5 µg/mL
Moraxella catarrhalis; M. catarrhalis, 10 h cultivation at 37° C.
  MIC (μg/mL) M. catarrhalis: 25 µg/mL
Proteus mirabilis; P. mirabilis, 10 h cultivation at 37° C.
  MIC (μg/mL) P. mirabilis: 50 µg/mL
Proteus vulgaris; P. vulgaris, 10 h cultivation at 37° C.
  MIC (μg/mL) P. vulgaris: 12.5 µg/mL
Serratia marcescens; S. marcescens, 10 h cultivation at 37° C.
  MIC (μg/mL) S. marcescens: 12.5 µg/mL

## PRT102 (DRCLPNYCEHGGECSQSWSTFHCNCTNTGYRGATC; listed as Homo sapiens)
E. coli DH5α
  MIC: 12.5 µg/mL
E. coli BL21; E. coli BL21, 96-well plate, 37° C., 10 h
  MIC (μg/mL) E. coli BL21: 12.5 µg/mL
Pseudomonas aeruginosa; Pseudomonas aeruginosa, 96-well plate, 37° C., 10 h
  MIC (μg/mL) P. aeruginosa: 12.5 µg/mL
Klebsiella pneumonia; Klebsiella pneumonia, 96-well plate, 37° C., 10 h
  MIC (μg/mL) K. pneumonia: 12.5 µg/mL
Enterobacter cloacae; Enterobacter cloacae, 96-well plate, 37° C., 10 h
  MIC (μg/mL) E. cloacae: 12.5 µg/mL
Aeromonas hydrophila; Aeromonas hydrophila, 96-well plate, 37° C., 10 h
  MIC (μg/mL) A. hydrophila: 12.5 µg/mL
Citrobacter diversus; Citrobacter diversus, 96-well plate, 37° C., 10 h
  MIC (μg/mL) C. diversus: 25 µg/mL
Moraxella catarrhalis; Moraxella catarrhalis, 96-well plate, 37° C., 10 h
  MIC (μg/mL) M. catarrhalis: 12.5 µg/mL
Proteus mirabilis; Proteus mirabilis, 96-well plate, 37° C., 10 h
  MIC (μg/mL) P. mirabilis: 25 µg/mL
Proteus vulgaris; Proteus vulgaris, 96-well plate, 37° C., 10 h
  MIC (μg/mL) P. vulgaris: 12.5 µg/mL
Serratia marcescens; Serratia marcescens, 96-well plate, 37° C., 10 h
  MIC (μg/mL) S. marcescens: 25 µg/mL

## PRT726 (LPPPCRCMHGGNCYFDETDLPKCKCPSGYTGKYCE; listed as Homo sapiens)
E. coli DH5α
  MIC: 12.5 µg/mL
E. coli BL21; 96-well plate, 37° C., 10 h
  MIC E. coli BL21: 50 µg/mL
Pseudomonas aeruginosa; 96-well plate, 37° C., 10 h
  MIC P. aeruginosa: 25 µg/mL
Klebsiella pneumonia; 96-well plate, 37° C., 10 h
  MIC K. pneumonia: 25 µg/mL
Enterobacter cloacae; 96-well plate, 37° C., 10 h
  MIC E. cloacae: 12.5 µg/mL
Aeromonas hydrophila; 96-well plate, 37° C., 10 h
  MIC A. hydrophila: 25 µg/mL
Citrobacter diversus; 96-well plate, 37° C., 10 h
  MIC C. diversus: 50 µg/mL
Moraxella catarrhalis; 96-well plate, 37° C., 10 h
  MIC M. catarrhalis: 25 µg/mL
Proteus mirabilis; 96-well plate, 37° C., 10 h
  MIC P. mirabilis: 12.5 µg/mL
Proteus vulgaris; 96-well plate, 37° C., 10 h
  MIC P. vulgaris: 50 µg/mL
Serratia marcescens; 96-well plate, 37° C., 10 h
  MIC S. marcescens: 25 µg/mL

## PRT1191 (AEHACTSNPCANGGSCHEVPSGFECHCPSGWSGPTCA; listed as Homo sapiens)
E. coli DH5α
  MIC: 12.5 µg/mL
E. coli BL21; [1]
  MIC E. coli BL21: 25 µg/mL
Pseudomonas aeruginosa; [1]
  MIC P. aeruginosa: 50 µg/mL
Klebsiella pneumonia; [1]
  MIC K. pneumonia: 25 µg/mL
Enterobacter cloacae; [1]
  MIC E. cloacae: 25 µg/mL
Aeromonas hydrophila; [1]
  MIC A. hydrophila: 25 µg/mL
Citrobacter diversus; [1]
  MIC C. diversus: 12.5 µg/mL
Moraxella catarrhalis; [1]
  MIC M. catarrhalis: 50 µg/mL
Proteus mirabilis; [1]
  MIC P. mirabilis: 25 µg/mL
Proteus vulgaris; [1]
  MIC P. vulgaris: 12.5 µg/mL
Serratia marcescens; [1]
  MIC S. marcescens: 50 µg/mL

## PRT1371 (GTRACPGDCRGRGRCVDGRCVCNPGFTGEDC; listed as Homo sapiens)
E. coli DH5α
  MIC: 50 µg/mL
E. coli BL21; [2]
  MIC against E. coli BL21: 12.5 µg/mL
Pseudomonas aeruginosa; Pseudomonas aeruginosa, 10 h cultivation at 37° C.
  MIC against P. aeruginosa: 12.5 µg/mL
Klebsiella pneumonia; Klebsiella pneumonia, 10 h cultivation at 37° C.
  MIC against K. pneumonia: 12.5 µg/mL
Enterobacter cloacae; Enterobacter cloacae, 10 h cultivation at 37° C.
  MIC against E. cloacae: 12.5 µg/mL
Aeromonas hydrophila; Aeromonas hydrophila, 10 h cultivation at 37° C.
  MIC against A. hydrophila: 12.5 µg/mL
Citrobacter diversus; Citrobacter diversus, 10 h cultivation at 37° C.
  MIC against C. diversus: 100 µg/mL
Moraxella catarrhalis; Moraxella catarrhalis, 10 h cultivation at 37° C.
  MIC against M. catarrhalis: 12.5 µg/mL
Proteus mirabilis; Proteus mirabilis, 10 h cultivation at 37° C.
  MIC against P. mirabilis: 12.5 µg/mL
Proteus vulgaris; Proteus vulgaris, 10 h cultivation at 37° C.
  MIC against P. vulgaris: 12.5 µg/mL
Serratia marcescens; Serratia marcescens, 10 h cultivation at 37° C.
  MIC against S. marcescens: 12.5 µg/mL
